Key:
H2171 cells = test: Cell viability assay (ATPlite), H2171; assay type: cell-based, human; conditions: cell viability, three days, ATPlite, NA: inactive under assay conditions
Procedure: (§1) This assay was used for the H2171 and MM1S cell data shown in Table 2, and for the Jurkat (an immortalized line of human T lymphocyte cells), Ly1 (OCI-Ly1 human non-Hodgkin lymphoma cell line), Ly4 (OCI-Ly4 human non-Hodgkin lymphoma cell line), H2172 (NCI-H2172 human non-small cell lung cancer cell line), and CA-46 (a human Burkitt's lymphoma cell line) cell data shown in Table 3 and FIG. 12. Cells were counted and adjusted to 60,000 cells/mL. Using a Biotek EL406, 50 μL of cells are media were distributed into 384 well white plates from Thermo. Immediately after plating, compound in DMSO was distributed to plates. For large plate sets, cells were returned to 37° C. incubator while not in use.
(§2) Compounds were added to plates using a 100 nL 384 well pin transfer manifold on a Janus workstation. Stocks were arrayed in 10 point quadruplicate dose response in DMSO stock in 384 well Greiner compound plates. After addition of compound, plates were incubated for three days in a 37° C. incubator.
(§3) Cell viability was read out using ATPlite from Perkin Elmer. Plates were removed from the incubator and brought to room temperature prior to use. Lyophilized powder was resuspended in lysis buffer and diluted 1:2 with DI water. 25 μL of this solution was added to each well using the Biotek liquid handler. Plates were sealed with adherent aluminum seals prior to vortexing and spinning down at 1000 g for 1 minute. Plates were incubated for 15 minutes at room temperature before signal was read on an Envision Plate Reader.

MM1S cells = test: Cell viability assay (ATPlite), MM1S; assay type: cell-based, human; conditions: cell viability, three days, ATPlite, NA: inactive under assay conditions
Procedure: as §1, §2, §3

c-Myc/Max/Ebox DNA = c-Myc/Max/Ebox DNA (Homo sapiens, UniProt P01106); test: c-Myc/Max/Ebox DNA AlphaScreen assay; assay type: binding; set-up: An exemplary assay uses full-length human c-Myc and Max proteins; his6 (cleaved yes); made in house; conditions: c-Myc/Max/Ebox DNA AlphaScreen; NA: inactive under assay conditions; read-out: Biochemical IC50
c-Myc/Max/Ebox DNA, sequence (P01106 16-454): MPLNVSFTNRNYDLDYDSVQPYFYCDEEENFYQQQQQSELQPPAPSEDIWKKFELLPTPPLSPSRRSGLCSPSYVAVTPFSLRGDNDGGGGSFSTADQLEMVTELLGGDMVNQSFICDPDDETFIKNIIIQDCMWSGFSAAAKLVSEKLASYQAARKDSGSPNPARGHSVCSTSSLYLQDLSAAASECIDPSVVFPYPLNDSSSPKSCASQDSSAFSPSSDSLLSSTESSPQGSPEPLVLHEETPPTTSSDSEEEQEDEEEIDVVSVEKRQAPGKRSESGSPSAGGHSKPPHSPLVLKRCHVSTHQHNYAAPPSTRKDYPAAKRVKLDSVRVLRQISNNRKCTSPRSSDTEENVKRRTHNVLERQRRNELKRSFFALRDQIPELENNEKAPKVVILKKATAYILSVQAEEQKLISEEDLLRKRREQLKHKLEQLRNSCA
Procedure: This protocol was used to generate the biochemical data in Table 2 and FIG. 11. The primary AlphaScreen assay is amenable to 384-well and 1536-well plate formats for HTS. Human his6-c-Myc and his6-Max were used with biotinylated DNA containing a single Ebox sequence (biotin[…]) purchased from MWG Operon. Free c-Myc was generated from his6-c-Myc through thrombin cleavage of the his6 tag. For 384-well plate assays, 10 μL of a 2× solution of free c-Myc (25 nM final), Ni++-coated Acceptor Bead (25 μg/ml final), and biotinylated Ebox oligo (10 nM final) were added to 384-well plates with a Biotek EL406 liquid handler. 100 nL of compounds from stock plates were added by pin transfer using a Janus Workstation (PerkinElmer), allowing the compounds to interact with c-Myc prior to c-Myc binding with Max. In the current assay, DMSO was not allowed to exceed 2% v/v of the assay. 10 μl of 2× master mix containing streptavidin-coated donor beads (25 μg/ml final) and his6-Max (1.25 nM final) were added. AlphaScreen measurements were performed on an Envision 2104 (PerkinElmer) utilizing the manufacturer's protocol. The assay can also be performed in 1536-plate format with 8 μL total volume using two 4 μL additions (instead of […] and 10 μL respectively).
Assays are performed with minor modifications from the manufacturer's protocol (PerkinElmer). Both master mixes were made in room temperature assay buffer (50 mM HEPES, 150 mM NaCl, 0.2% w/v BSA, 0.02% w/v Tween20, 40 μg/ml glycogen, 500 μM DTT, pH 8.0, DTT and glycogen added fresh). Alpha beads were added to respective master solutions and wrapped in foil. All subsequent steps were performed in low light conditions. Solution 1: 2× solution of components with final concentrations of cMyc (25 nM), Ni-coated Acceptor Bead (25 μg/ml), and biotinylated Ebox oligo (10 nM). Solution 2: 2× solution of streptavidin-coated donor beads (25 μg/ml final) and his6-Max (1.25 nM final). […] Solution 1 were added to 384-well plate (AlphaPlate-384, PerkinElmer) with Biotek EL406 liquid handler and the plates were centrifuged at 1000 rpm for 1 minute. 100 nL of compounds from stock plates were added by pin transfer using a Janus Workstation. 10 μL Solution 2 were added with the liquid handler. Plates were sealed with foil to block light exposure and prevent evaporation. Plates were centrifuged at 1000 rpm for 1 minute followed by 2 hour incubation. AlphaScreen measurements were performed on an Envision 2104 utilizing the manufacturer's protocol. Excitation was at 680 nm for donor bead release of singlet oxygen and emission was read with a bandpass filter from 520-620 nm. Glycogen: Roche Diagnostics #10901393001. Plate 1536: Perkin Elmer, 6004350. Plate 384: Perkin Elmer, 6005350. Nickel-His Alpha Beads: 6760619R.

| SMILES | EC50 (H2171 cells; Homo sapiens, NCI-H2171, 72 h) | EC50 (MM1S cells; Homo sapiens, MM1.S, 72 h) | IC50 (c-Myc/Max/Ebox DNA) | EC50 (H2171 cells) | EC50 (MM1S cells) |
| --- | --- | --- | --- | --- | --- |
| Cc1ccc(C)n1-c1ccc(C(=O)O)c(Cl)c1 [Compound 6] | 76.3 µM | 208 µM | 81.5 µM | – | – |
| Cc1ccc(-c2ccccc2)n1-c1ccc(O)c(C(=O)O)c1 [Compound 12] | 123 µM | 79.3 µM | 61.8 µM | – | – |
| CCOC(=O)c1ccc(-n2c(C)ccc2-c2ccccc2)cc1 [Compound 13] | 54.4 µM | 69.9 µM | 144 µM | – | – |
| COC(=O)c1ccccc1-n1c(C)ccc1C [Compound 14] | 86.3 µM | 223 µM | 97.3 µM | – | – |
| O=C(O)c1ccc(-n2cccc2)cc1O [Compound 16] | 104 µM | 130 µM | 165 µM | – | – |
| CCCOC(=O)c1ccc(-n2c(CCC(=O)O)ccc2-c2ccccc2)cc1O [Compound 21] | 89.1 µM | 75.3 µM | 96 µM | – | – |
| CCOC(=O)c1ccc(-n2c(CCC(=O)O)ccc2-c2cccs2)cc1O [Compound 22] | 73.4 µM | 71.7 µM | 124 µM | – | – |
| CCOC(=O)c1ccc(-n2c(CCC(=O)O)ccc2-c2ccc(Br)cc2)cc1O [Compound 23] | 64.9 µM | 58 µM | 81.6 µM | – | – |
| CCOC(=O)c1ccc(-n2c(CCC(=O)O)ccc2-c2ccc(OC)cc2)cc1O [Compound 24] | 166 µM | 83.2 µM | 116 µM | – | – |
| CCOC(=O)c1ccc(-n2c(CCC(=O)O)ccc2-c2ccccc2)cc1O [Compound 25] | 101 µM | 78.3 µM | 139 µM | – | – |
| Cc1nccn1-c1ccccc1C(=O)O [Compound 26] | 6.27 µM | 11.5 µM | 442 µM | – | – |
| Cc1ccc(C)n1-c1ccc(C(=O)O)c(O)c1 [Compound 65] | – | – | 61.9 µM | 189 µM | 1440 µM |
| Cc1ccc(C)n1-c1ccccc1CC(=O)O [Compound 68] | 52.9 µM | 340 µM | 195 µM | – | – |
| Cc1ccc(C)n1-c1ccccc1/C=C/C(=O)O [Compound 69] | 115 µM | 39 µM | 156 µM | – | – |
| Cc1ccc(C)n1-c1cc(C(=O)NN)ccc1C(=O)O [Compound 70] | – | 1240 µM | 6.98 µM | 43.7 µM | – |
| Cc1ccc(C)n1-c1cc(C(=O)N/N=C/c2ccccc2)ccc1C(=O)O [Compound 71] | 48.4 µM | 261 µM | 103 µM | – | – |
| Cc1ccc(C)n1-c1cc(C(=O)NCCc2c[nH]cn2)ccc1C(=O)O [Compound 72] | 198 µM | 2760 µM | 15.4 µM | – | – |
| Cc1ccc(C)n1-c1cc(C(=O)NCCN2CCN(C)CC2)ccc1C(=O)O [Compound 74] | 120 µM | 27600 µM | 104 µM | – | – |

| SMILES | EC50 (H2171 cells; Homo sapiens, NCI-H2171, 72 h) | EC50 (MM1S cells; Homo sapiens, MM1.S, 72 h) | IC50 (c-Myc/Max/Ebox DNA) | EC50 (H2171 cells) | EC50 (MM1S cells) |
| --- | --- | --- | --- | --- | --- |
| Cc1ccc(C)n1-c1cc(C(=O)N/N=C/c2ccc3c(c2)OCCN3C)ccc1C(=O)O [Compound 89] | 198 µM | 92.4 µM | 38 µM | – | – |
| Cc1ccc(C)n1-c1cc(C(=O)N/N=C/c2cc(C(F)(F)F)cc(C(F)(F)F)c2)ccc1C(=O)O [Compound 98] | 24100 µM | 5170 µM | 3.84 µM | – | – |
| Cc1ccc(C)n1-c1cc(C(=O)N/N=C/c2ccc(F)c(F)c2)ccc1C(=O)O [Compound 99] | 106 µM | 492 µM | 4.82 µM | – | – |
| Cc1ccc(C)n1-c1ccc(C(=O)O)c(O)c1 [Compound 127] | – | – | 53.3 µM | 517 µM | 517 µM |
| Cc1ccc(C)n1-c1ccccc1S(=O)(=O)O [Compound 128] | 303 µM | 243 µM | 252 µM | – | – |
| Cc1ccc(C)n1-c1cc2ccccc2cc1C(=O)O [Compound 129] | 151 µM | 264 µM | 31 µM | – | – |
| Cc1cc(Br)c(-n2c(C)ccc2C)c(C(=O)O)c1 [Compound 130] | 224 µM | 300 µM | 51.5 µM | – | – |
| Cc1c(C)c(C)n(-c2ccc(C(=O)O)c(O)c2)c1C [Compound 139] | 564 µM | 329 µM | 96.4 µM | – | – |
| CC(=O)OCOC(=O)c1ccc(-n2c(C)ccc2C)cc1O [Compound 143] | – | – | 91.4 µM | 66.1 µM | 161 µM |
| COc1cc(C(=O)O)c(-n2c(C)ccc2C)cc1OC [Compound 145] | 83.8 µM | 161 µM | 13.5 µM | – | – |
| Cc1ccc(-c2ccc(-n3c(C)ccc3C)c(C(=O)O)c2)cc1 [Compound 148] | 268 µM | 1690 µM | 941 µM | – | – |
| CC(=O)OCOC(=O)c1ccccc1-n1c(C)ccc1C [Compound 149] | – | – | 101 µM | 20.7 µM | 71.4 µM |
| CC(=O)OCOC(=O)c1ccccc1-n1cccc1 [Compound 150] | 28 µM | 99.1 µM | 150 µM | – | – |
| CC(=O)OCOC(=O)c1ccccc1N1CCOCC1 [Compound 152] | 22.8 µM | 71.9 µM | 2480 µM | – | – |
| Cc1cccc(Nc2ccccc2C(=O)O)c1C [Compound 153] | 93.5 µM | 185 µM | 403 µM | – | – |
| CC(=O)Nc1ccc(-n2c(C)ccc2C)c(C(=O)O)c1 [Compound 155] | 247 µM | 222 µM | 1.8 µM | – | – |
| CC(=O)OCOC(=O)c1ccc(Cl)cc1-n1c(C)ccc1C [Compound 158] | 70.3 µM | 238 µM | 206 µM | – | – |
| CC(=O)OCOC(=O)c1ccccc1N1CCN(C)CC1 [Compound 159] | 84.1 µM | 209 µM | – | – | – |

From patent publication US9567301B2, “Pyrrol-1-yl benzoic acid derivatives useful as myc inhibitors” (Whitehead Institute for Biomedical Research, priority 2012, dated 2017)
